According to ChEMBL document CHEMBL5465560, “Selectivity Literature for EUbOPEN Chemogenomic Library” (2024):
Values belong to the molecule of their own block, whether it stands above or below them.

Experiments:
[1] = target: T1, Histone-lysine N-methyltransferase NSD3 (Homo sapiens) (UniProt Q9BZ95); experiment: Selectivity interaction (Methyltransferase screen (radiometric assays, panel of 8 PRMTs, 21 protein lysine methyltransferases, 3 DNA methyltransferases, and one RNA methyltransferase)) EUB0000272b NSD3
T1 sequence (whole entry): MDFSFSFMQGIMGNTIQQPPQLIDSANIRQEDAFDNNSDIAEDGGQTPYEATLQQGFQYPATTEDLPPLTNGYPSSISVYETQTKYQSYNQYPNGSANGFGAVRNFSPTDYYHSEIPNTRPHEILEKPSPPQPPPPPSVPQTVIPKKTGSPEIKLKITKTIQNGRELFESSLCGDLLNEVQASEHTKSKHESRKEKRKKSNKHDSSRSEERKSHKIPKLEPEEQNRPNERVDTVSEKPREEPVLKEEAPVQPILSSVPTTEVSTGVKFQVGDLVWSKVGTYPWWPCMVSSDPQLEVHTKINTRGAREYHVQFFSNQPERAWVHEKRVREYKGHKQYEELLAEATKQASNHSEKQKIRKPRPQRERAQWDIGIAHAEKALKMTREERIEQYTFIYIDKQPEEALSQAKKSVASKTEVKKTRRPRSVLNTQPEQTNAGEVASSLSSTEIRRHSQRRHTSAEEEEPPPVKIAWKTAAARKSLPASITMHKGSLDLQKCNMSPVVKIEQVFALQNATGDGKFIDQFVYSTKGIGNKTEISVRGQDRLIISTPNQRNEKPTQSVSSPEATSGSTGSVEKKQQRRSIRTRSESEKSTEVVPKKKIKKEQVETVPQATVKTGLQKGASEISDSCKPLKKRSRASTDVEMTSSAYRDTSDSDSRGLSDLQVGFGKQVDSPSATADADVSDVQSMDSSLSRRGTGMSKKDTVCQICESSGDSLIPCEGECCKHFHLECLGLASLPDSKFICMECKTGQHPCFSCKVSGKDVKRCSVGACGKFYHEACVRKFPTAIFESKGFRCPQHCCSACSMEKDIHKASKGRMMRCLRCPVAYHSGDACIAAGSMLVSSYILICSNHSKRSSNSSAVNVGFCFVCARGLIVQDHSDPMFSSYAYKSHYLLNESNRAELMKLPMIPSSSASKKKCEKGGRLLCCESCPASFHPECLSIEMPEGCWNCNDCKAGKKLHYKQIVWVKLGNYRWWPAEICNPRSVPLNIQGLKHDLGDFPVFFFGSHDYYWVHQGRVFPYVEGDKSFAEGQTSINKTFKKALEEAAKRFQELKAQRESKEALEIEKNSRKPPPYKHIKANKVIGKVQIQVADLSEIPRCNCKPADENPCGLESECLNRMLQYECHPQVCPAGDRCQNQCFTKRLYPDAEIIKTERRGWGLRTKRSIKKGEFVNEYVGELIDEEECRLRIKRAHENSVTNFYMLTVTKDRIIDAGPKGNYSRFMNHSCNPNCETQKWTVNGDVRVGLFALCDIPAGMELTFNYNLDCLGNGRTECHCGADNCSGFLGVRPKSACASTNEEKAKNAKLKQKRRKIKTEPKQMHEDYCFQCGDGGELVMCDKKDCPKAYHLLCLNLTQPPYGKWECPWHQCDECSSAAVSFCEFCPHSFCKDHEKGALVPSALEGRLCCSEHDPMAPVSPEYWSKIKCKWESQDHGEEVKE

[2] = target: Tyrosine-protein kinase Srms (Homo sapiens) (UniProt Q9H3Y6); details: at 10 µM
Sequence of Tyrosine-protein kinase Srms (Homo sapiens) (Q9H3Y6 whole entry): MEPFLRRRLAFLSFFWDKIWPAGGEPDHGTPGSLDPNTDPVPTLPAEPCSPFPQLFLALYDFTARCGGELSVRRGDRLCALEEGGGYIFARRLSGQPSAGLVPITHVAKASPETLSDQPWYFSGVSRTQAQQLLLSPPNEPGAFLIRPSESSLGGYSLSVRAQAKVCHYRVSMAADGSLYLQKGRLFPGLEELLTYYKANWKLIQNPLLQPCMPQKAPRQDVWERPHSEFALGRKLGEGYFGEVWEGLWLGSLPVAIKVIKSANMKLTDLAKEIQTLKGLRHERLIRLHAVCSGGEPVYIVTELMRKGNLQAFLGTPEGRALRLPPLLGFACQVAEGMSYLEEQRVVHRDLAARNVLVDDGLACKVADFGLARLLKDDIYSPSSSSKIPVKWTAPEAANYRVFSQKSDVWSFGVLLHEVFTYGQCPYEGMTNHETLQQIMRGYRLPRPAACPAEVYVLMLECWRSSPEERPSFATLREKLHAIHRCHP

[3] = target: T2, Gamma-aminobutyric acid receptor subunit alpha-1 (Homo sapiens) (UniProt P14867); experiment: Selectivity interaction (Panel of non-epigenetic targets (kinases, GPCRs, ion channels, and transporters, Eurofins) ) EUB0000271b GABRA1; details: at 1 µM
T2 sequence (whole entry): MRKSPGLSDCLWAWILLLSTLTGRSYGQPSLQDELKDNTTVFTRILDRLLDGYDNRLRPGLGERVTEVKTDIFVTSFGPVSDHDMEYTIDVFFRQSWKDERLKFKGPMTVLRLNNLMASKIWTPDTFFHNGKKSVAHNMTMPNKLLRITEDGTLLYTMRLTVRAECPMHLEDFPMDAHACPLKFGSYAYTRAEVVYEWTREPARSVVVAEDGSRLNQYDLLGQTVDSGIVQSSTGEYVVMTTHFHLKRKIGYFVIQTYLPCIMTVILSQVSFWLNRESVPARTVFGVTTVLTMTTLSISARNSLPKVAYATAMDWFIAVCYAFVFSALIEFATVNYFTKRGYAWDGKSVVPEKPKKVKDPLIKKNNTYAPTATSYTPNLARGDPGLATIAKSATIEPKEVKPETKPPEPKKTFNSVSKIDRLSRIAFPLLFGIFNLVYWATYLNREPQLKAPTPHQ

[4] = target: Activated CDC42 kinase 1 (Homo sapiens, UniProt Q07912); experiment: Selectivity interaction (KinaseProfiler screening (Millipore)) EUB0000601a TNK2; details: at 3 µM
Sequence of Activated CDC42 kinase 1 (Q07912 whole entry, looked up): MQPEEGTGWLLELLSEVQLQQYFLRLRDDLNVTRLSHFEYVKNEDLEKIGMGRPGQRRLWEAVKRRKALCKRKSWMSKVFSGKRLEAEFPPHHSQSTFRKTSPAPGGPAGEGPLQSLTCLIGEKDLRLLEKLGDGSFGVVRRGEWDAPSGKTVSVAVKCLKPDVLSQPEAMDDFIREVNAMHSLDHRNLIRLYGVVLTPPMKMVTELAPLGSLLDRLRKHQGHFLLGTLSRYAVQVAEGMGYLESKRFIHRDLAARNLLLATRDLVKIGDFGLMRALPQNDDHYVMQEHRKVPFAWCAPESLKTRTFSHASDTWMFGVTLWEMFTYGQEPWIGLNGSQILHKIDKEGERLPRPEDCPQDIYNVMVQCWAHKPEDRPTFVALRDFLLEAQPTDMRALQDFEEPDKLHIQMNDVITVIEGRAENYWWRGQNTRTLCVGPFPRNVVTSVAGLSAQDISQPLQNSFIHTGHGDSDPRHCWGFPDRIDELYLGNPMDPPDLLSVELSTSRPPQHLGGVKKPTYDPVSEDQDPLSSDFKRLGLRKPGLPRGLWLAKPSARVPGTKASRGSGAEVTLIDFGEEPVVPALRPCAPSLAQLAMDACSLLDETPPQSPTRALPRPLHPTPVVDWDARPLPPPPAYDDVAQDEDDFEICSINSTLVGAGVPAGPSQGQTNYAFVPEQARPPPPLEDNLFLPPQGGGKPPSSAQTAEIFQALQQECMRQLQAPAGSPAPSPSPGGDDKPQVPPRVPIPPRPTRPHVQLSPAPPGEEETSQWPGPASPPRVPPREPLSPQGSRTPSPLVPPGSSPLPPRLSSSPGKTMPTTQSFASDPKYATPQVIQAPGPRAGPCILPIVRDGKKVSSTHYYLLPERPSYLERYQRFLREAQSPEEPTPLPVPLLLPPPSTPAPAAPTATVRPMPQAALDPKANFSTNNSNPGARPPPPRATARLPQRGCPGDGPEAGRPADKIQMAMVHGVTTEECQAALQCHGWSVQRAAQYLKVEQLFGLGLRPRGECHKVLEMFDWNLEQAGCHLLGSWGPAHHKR

[5] = target: Ephrin type-A receptor 2 (Homo sapiens) (UniProt P29317); experiment: Selectivity interaction (KinomeScan (DiscoverX)) EUB0001049a EPHA2; details: at 1 µM
Sequence of Ephrin type-A receptor 2 (Homo sapiens) (P29317 whole entry): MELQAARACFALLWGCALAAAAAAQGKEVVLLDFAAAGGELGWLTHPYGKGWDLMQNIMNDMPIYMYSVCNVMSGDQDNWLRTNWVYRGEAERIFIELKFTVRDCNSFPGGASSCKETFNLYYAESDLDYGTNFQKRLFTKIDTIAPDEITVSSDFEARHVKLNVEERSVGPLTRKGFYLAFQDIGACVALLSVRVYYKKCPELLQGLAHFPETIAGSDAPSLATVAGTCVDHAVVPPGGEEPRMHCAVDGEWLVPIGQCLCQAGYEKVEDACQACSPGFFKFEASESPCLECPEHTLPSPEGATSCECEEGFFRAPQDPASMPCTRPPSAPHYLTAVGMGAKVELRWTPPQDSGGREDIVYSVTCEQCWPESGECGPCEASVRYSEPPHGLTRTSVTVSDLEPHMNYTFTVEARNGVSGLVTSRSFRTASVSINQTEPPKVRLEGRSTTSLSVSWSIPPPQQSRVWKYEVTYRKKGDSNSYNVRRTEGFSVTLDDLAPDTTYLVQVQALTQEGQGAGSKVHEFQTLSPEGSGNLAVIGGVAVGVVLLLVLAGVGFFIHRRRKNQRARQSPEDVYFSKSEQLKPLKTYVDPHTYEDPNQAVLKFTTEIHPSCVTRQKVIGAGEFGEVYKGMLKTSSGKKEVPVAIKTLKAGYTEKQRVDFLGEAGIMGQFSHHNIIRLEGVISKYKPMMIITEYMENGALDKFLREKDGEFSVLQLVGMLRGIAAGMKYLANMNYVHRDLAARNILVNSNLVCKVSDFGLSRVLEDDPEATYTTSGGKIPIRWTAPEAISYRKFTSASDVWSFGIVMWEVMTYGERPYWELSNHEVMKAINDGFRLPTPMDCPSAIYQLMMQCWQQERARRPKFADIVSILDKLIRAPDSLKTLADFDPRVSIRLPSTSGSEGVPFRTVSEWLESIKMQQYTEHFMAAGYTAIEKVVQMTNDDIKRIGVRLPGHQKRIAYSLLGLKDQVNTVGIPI

[6] = target: Ribosomal protein S6 kinase alpha-1 (Homo sapiens, UniProt Q15418); experiment: Selectivity interaction (Ambit KINOMEscan and KiNATiv profiling in Jurkat cells) EUB0000090b RPS6KA1; assay type: cell-based; details: at 1 µM
Sequence of Ribosomal protein S6 kinase alpha-1 (Q15418 whole entry): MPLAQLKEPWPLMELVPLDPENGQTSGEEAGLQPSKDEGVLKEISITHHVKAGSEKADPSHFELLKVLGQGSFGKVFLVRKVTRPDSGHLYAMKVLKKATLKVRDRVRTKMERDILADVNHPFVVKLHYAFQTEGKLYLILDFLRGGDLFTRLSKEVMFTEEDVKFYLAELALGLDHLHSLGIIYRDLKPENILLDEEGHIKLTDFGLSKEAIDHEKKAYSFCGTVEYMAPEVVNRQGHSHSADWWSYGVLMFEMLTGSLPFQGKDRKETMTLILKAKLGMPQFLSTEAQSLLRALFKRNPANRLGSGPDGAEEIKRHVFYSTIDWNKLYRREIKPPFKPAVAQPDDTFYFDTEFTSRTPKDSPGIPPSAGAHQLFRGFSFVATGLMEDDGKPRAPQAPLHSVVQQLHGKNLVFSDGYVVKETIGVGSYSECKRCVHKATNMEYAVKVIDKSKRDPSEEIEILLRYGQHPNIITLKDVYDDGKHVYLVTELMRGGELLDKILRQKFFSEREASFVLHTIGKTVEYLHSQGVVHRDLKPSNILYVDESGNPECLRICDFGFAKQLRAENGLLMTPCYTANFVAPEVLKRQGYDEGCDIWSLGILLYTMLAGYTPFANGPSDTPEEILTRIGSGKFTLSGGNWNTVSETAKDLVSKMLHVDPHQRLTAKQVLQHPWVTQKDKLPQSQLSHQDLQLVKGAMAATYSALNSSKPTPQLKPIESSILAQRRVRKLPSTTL

[7] = target: T3, Rhodopsin kinase GRK7 (Homo sapiens) (UniProt Q8WTQ7); experiment: Selectivity interaction (Ambit KINOMEscan and KiNATiv profiling in Jurkat cells) EUB0000090b GRK7; assay type: cell-based; details: at 1 µM
T3 sequence (whole entry): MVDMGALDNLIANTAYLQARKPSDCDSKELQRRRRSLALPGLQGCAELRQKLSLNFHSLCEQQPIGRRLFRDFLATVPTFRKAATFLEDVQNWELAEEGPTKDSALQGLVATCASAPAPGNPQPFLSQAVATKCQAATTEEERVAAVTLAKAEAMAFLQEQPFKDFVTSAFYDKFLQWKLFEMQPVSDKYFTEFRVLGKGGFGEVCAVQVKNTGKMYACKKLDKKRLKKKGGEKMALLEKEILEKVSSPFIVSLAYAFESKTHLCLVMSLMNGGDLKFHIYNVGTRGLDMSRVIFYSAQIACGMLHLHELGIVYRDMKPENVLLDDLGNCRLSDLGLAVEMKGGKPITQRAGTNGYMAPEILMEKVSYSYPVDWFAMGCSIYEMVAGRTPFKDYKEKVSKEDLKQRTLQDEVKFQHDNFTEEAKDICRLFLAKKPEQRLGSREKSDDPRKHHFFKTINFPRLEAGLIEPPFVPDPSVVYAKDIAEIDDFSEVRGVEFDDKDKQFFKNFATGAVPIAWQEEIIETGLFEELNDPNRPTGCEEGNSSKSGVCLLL

[8] = target: Mitogen-activated protein kinase 8 (Homo sapiens, UniProt P45983); experiment: Selectivity interaction (KinomeScan (DiscoverX)) EUB0001079a MAPK8; details: at 1 µM
Sequence of Mitogen-activated protein kinase 8 (P45983 whole entry): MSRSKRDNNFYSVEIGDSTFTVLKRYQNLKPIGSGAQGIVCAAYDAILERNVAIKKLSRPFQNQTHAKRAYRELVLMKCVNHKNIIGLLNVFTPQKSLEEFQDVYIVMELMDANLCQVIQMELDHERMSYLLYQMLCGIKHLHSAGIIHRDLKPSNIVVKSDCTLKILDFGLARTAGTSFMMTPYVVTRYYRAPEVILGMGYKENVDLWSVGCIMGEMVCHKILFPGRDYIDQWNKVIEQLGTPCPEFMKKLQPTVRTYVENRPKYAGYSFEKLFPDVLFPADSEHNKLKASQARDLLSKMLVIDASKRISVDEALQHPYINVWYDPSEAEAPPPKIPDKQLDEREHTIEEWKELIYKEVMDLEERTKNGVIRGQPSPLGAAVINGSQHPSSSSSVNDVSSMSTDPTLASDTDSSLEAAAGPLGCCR

[9] = target: Serine/threonine-protein kinase PAK 2 (Homo sapiens) (UniProt Q13177); experiment: Selectivity interaction (KinomeScan (DiscoverX)) EUB0000618a PAK2; details: at 10 µM
Sequence of Serine/threonine-protein kinase PAK 2 (Homo sapiens) (Q13177 whole entry): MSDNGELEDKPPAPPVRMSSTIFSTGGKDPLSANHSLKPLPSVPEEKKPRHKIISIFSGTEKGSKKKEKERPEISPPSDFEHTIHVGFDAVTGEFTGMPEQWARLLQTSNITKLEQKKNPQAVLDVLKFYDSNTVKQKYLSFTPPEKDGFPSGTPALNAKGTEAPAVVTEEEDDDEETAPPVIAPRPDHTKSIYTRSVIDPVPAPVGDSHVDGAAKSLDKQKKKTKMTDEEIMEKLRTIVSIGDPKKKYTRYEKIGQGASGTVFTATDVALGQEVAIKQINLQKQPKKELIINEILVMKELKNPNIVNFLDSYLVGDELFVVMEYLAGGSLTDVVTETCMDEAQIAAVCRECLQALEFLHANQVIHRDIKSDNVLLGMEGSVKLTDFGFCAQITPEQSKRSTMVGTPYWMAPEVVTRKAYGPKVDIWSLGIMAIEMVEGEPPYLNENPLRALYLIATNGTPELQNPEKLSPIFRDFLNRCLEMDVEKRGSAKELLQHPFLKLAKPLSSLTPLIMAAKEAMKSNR

% of activity ([1]; at 1 µM): 104%
% of activity ([1]; at 10 µM): 99%
Compound: Cc1cc(C)cc([C@H]2c3cc(C)ccc3NC(=O)CN2C(=O)c2ccc(Br)s2)c1

% of control [2]: 100%
Compound: CCN(CC)CCCCNc1ncc2cc(-c3cc(OC)cc(OC)c3)c(NC(=O)NC(C)(C)C)nc2n1

Compound: Cc1cc(C)cc([C@@H]2c3cc(C)ccc3NC(=O)CN2C(=O)c2ccc(Br)s2)c1
% of inhibition [3]: -9%

% of inhibition [4]: 34%
Compound: CCc1cc(Nc2nccc(-c3c(-c4ccc(OC)c(C(=O)Nc5c(F)cccc5F)c4)nc4ccccn34)n2)c(OC)cc1N1CCC(N2CCN(S(C)(=O)=O)CC2)CC1

Compound: COc1cc(Nc2nc(C)cc(-c3cnn4nc(OC)ccc34)n2)cc(C(F)(F)F)c1
% of control [5]: 87%

Compound: CN(C)C/C=C/C(=O)Nc1ccc(C(=O)N2CCCC(Nc3ncc(Cl)c(-c4c[nH]c5ccccc45)n3)C2)cc1 (stereo not given)
% of control [6]: 89%
% of control [7]: 70%

Compound: Nc1cnc(N2CCc3cc(S(=O)(=O)Nc4c(F)cc(Cl)cc4F)cc(N4CCCC4=O)c32)nc1 [TP-020n]
% of control [8]: 78%

Compound: O[C@H]1CC[C@H](Nc2ncc3nc(Nc4c(F)cc(F)cc4F)n([C@H]4CCOC4)c3n2)CC1
% of control [9]: 100%
